Our source for the IC50, concentration and Ki values is US20210300936A1, “PYRAZOLOTRIAZOLOPYRIMIDINE DERIVATIVES AS A2A RECEPTOR ANTAGONIST” (BEIGENE, LTD., priority 2018, published 2021).

Where two headings read alike, the source gives them in different places.

The target in data set [1] is human A2A receptor (A2AR) (Homo sapiens, UniProt P29274). Put plainly: Luciferase reporter assay (HEK293-A2AR-luc2p/CRE/Hygro cells, 3 nM CGS21680). It is filed as cell-based. To be noted: 3 nM CGS21680, 5 h incubation. In short, it runs like this: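 Antagonist (0.1–10000 nM) and 3 nM CGS21680 were co-added for 5 h to stable HEK293-A2AR-luc2p/CRE cells, 18 h after seeding in 1% FBS medium containing adenosine deaminase. Luminescence was normalized to agonist alone (100%), and IC50 came from the dose–inhibition curve.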
(In general: A reporter such as luciferase makes a cellular process visible.)

The next data set is described as follows: Mouse BBB assay. The class given is in vivo. To be noted: oral 10 mg/kg. As for the experimental part:
Mice were acclimated for 1 week prior to use at 18-30 g body weight. Fasted mice were dosed orally at 10 mg/kg dose. At 1, 2 and 4 hours postdose, plasma samples from cardiac blood collected in tubes containing K2EDTA as the anticoagulant, and excised cerebral hemispheres were immediately frozen and stored at −80° C. until bioanalysis. Total concentrations of the compound were determined by LC-MS/MS. Brain homogenate concentrations were converted to brain concentrations for the calculations of brain-to-plasma ratios.

In data set [2] the target is T1, human adenosine receptor A2A (A2AR) (Homo sapiens, UniProt P29274).
T1 construct: host or cells: HEK293 cells (membrane homogenates)
Put plainly: Adenosine receptor binding assay, radioligand competitive binding, [3H]CGS21680. To be noted: membrane homogenates from HEK293 cells transfected with A2AR, 6 nM [3H]CGS21680. The protocol:
(§1) Binding affinity of test compounds to four human adenosine receptors, A1, A2A, A2B and A3 was determined in radioligand competitive binding assay (conducted by Cerep, France) using following protocols. For A1 receptor (A1R), membrane homogenates from CHO cells transfected with A1R were incubated for 60 min at 22° C. with 1 nM [3H]DPCPX in the absence or presence of the test compound in a buffer containing 50 mM Tris-HCl (pH 7.4), 5 mM MgCl2, 1 mM EDTA/Tris and 2 UI/mL ADA. For A2AR, membrane homogenates from HEK293 cells transfected with A2AR were incubated for 120 min at 22° C. with 6 nM [3H]CGS21680 in the absence or presence of the test compound in a buffer containing 50 mM Tris-HCl (pH 7.4), 10 mM MgCl2, and 2 UI/mL ADA. For A2B receptor (A2BR), membrane homogenates from HEK293 cells transfected with A2BR were incubated for 60 min at 22° C. with 5 nM [3H]CPX in the absence or presence of the test compound in a buffer containing 10 mM Hepes/Tris (pH 7), 1 mM MgCl2, and 1 mM EDTA. For A3 receptor (A3R), membrane homogenates from HEK293 cells transfected with A3R were incubated for 120 min at 22° C. with 0.15 nM [125I]AB-MECA in the absence or presence of the test compound in a buffer containing 50 mM Tris-HCl (pH 7.4), 5 mM MgCl2, 1 mM EDTA and 2 UI/mL ADA. Nonspecific binding was determined in the presence of unlabeled 1 μM DPCPX, 10 μM NECA, 100 μM NECA, and 1 μM IB-MECA in A1R, A2AR, A2BR, A3R binding assays, respectively. Following incubation, the samples are rapidly filtered and washed with ice-cold 50 mM Tris-HCl. Then filters are dried and counted for radioactivity in a scintillation counter (Topcount, Packard) using a scintillation cocktail (Microscint 0, Packard). Duplicate experiments were performed for each assay. The results are expressed as a percent inhibition of control radioligand specific binding.

Data set [3] addresses T2, human adenosine receptor A1 (A1R) (Homo sapiens, UniProt P30542).
T2 construct: host or cells: CHO cells (membrane homogenates)
T2 sequence (P30542 1-326): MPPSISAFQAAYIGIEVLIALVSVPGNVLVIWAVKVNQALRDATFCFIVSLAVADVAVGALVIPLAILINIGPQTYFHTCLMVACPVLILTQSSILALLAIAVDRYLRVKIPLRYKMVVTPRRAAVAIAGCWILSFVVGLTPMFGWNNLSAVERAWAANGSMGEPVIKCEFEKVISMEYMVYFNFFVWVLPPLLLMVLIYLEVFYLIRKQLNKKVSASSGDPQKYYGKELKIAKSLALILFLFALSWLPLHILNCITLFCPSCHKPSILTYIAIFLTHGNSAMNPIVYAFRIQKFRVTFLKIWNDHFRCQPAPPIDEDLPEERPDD
The experiment in a line: Adenosine receptor binding assay, radioligand competitive binding, [3H]DPCPX. To be noted: membrane homogenates from CHO cells transfected with A1R, 1 nM [3H]DPCPX. The protocol: as §1

As a reminder, the IC50 is the concentration at which inhibition is half-maximal. Usually Ki stands for the dissociation constant of the complex between target and ligand, obtained from inhibition or displacement. The low end stands for a stronger hold on the target, the high end for a looser hold on the target.

Sequence of human A2A receptor (A2AR) (P29274 whole entry): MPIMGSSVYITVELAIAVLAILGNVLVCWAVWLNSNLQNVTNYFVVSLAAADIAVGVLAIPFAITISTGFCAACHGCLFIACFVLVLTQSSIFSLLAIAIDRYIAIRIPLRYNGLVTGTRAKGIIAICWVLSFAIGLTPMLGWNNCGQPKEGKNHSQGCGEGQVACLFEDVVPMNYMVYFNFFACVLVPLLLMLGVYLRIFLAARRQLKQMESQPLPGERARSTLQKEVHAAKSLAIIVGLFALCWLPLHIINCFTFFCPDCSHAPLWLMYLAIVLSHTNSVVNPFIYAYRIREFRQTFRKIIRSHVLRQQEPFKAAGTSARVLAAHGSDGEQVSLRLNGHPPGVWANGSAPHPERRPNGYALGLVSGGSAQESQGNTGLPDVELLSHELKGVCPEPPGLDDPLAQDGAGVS
T1 sequence (P29274 whole entry): as above

`CCCC(C(=O)N1CCN(c2ccc(OCCOC)cc2)CC1)n1ncc2c1nc(N)n1nc(-c3ccco3)nc21` (single isomer, unassigned) [Compound A5a, 2-(5-amino-2-(furan-2-yl)-7H-pyrazolo[4,3-e][1,2,4]triazolo[1,5-c]pyrimidin-7-yl)-1-(4-(4-(2-methoxyethoxy)phenyl)piperazin-1-yl)pentan-1-one] displayed a concentration for half-maximal inhibition (IC50) in data set [1] of 2.2 nM. Further, the concentration at 1 h stood at 5.1 ng/g in “Mouse BBB assay” (brain, read-out: Brain) and 116 ng/mL in “Mouse BBB assay” (plasma, read-out: Plasma). Besides, the inhibition constant Ki in data set [2] was found to be 1.7 nM; in data set [3] it was 160 nM.

In turn, `COCCOc1ccc(N2CCN(C(=O)C(c3ccccc3)n3ncc4c3nc(N)n3nc(-c5ccco5)nc43)CC2)cc1` (single isomer, unassigned) [Compound A13b] came in with an IC50 in data set [1] of 0.8 nM. Also, the concentration at 1 h in “Mouse BBB assay” (brain, read-out: Brain) amounted to 54 ng/g; in the data set “Mouse BBB assay” (plasma, read-out: Plasma) it was 2440 ng/mL. In addition, the inhibition constant Ki in data set [2] was determined as 0.92 nM; in data set [3], 42 nM.

Take `CCCC(C(=O)N1CCN(c2ccc(OCCOCCOC)cc2)CC1)n1ncc2c1nc(N)n1nc(-c3ccco3)nc21` (single isomer, unassigned) [Compound A6a, 2-(5-amino-2-(furan-2-yl)-7H-pyrazolo[4,3-e][1,2,4]triazolo[1,5-c]pyrimidin-7-yl)-1-(4-(4-(2-(2-methoxyethoxy)ethoxy)phenyl)piperazin-1-yl)pentan-1-one]: 5 nM corresponded to half-maximal inhibition in data set [1] (IC50). Also, the concentration at 1 h in “Mouse BBB assay” (brain, read-out: Brain) was found to be 4.2 ng/g; in “Mouse BBB assay” (plasma, read-out: Plasma) it was 173 ng/mL. Further, the Ki in data set [2] came out at 1.4 nM; in data set [3], 81 nM.

`CCCC(C(=O)N1CCN(c2ccc(OCCN(C)C)cc2)CC1)n1ncc2c1nc(N)n1nc(-c3ccco3)nc21` (single isomer, unassigned) [Compound A39b] came in with an IC50 in data set [1] of 3.6 nM. The figures for the inhibition constant (Ki) in data set [2] and in data set [3] were 2 nM and 79 nM, respectively.

In turn, `Nc1nc2c(cnn2C(C(=O)N2CCc3ccccc3C2)c2ccccc2)c2nc(-c3ccco3)nn12` (single isomer, unassigned) [Compound B3b] showed an IC50 in data set [1] of 0.5 nM. Also, the values for the inhibition constant Ki in data set [2] and in data set [3] were 0.89 nM and 150 nM, respectively.

Regarding `CCCCC(C(=O)N1CCN(c2ccc(OCCOC)cc2)CC1)n1ncc2c1nc(N)n1nc(-c3ccco3)nc21` (single isomer, unassigned) [Compound A10a, 2-(5-amino-2-(furan-2-yl)-7H-pyrazolo[4,3-e][1,2,4]triazolo[1,5-c]pyrimidin-7-yl)-1-(4-(4-(2-methoxyethoxy)phenyl)piperazin-1-yl)hexan-1-one], the IC50 in data set [1] amounted to 2.7 nM. The concentration at 1 h in the data set “Mouse BBB assay” (brain, read-out: Brain) was determined as 20 ng/g; in the data set “Mouse BBB assay” (plasma, read-out: Plasma) it was 471 ng/mL. The Ki is 2.3 nM in data set [2] and 120 nM in data set [3].

As for `CCCC(C(=O)N1CCN(c2ccc(OCCOC)cc2F)CC1)n1ncc2c1nc(N)n1nc(-c3ccco3)nc21` (single isomer, unassigned) [Compound A24b], half-maximal inhibition in data set [1] (IC50) required 78.8 nM. Also, the inhibition constant (Ki) in data set [2] was 8.5 nM; in data set [3], 1200 nM.

In turn, `COCCOc1ccc(N2CCN(C(=O)C(c3ccccc3F)n3ncc4c3nc(N)n3nc(-c5ccco5)nc43)CC2)cc1` (single isomer, unassigned) [Compound A43b] registered an IC50 in data set [1] of 0.4 nM. In addition, the results for the inhibition constant Ki in data set [2] and in data set [3] were 1.2 nM and 54 nM, respectively.

With `COCCOc1ccc(N2CCN(C(=O)C(c3ccccc3)n3ncc4c3nc(N)n3nc(-c5ccco5)nc43)CC2)cc1` (single isomer, unassigned) [Compound A13a], in data set [1], the 50% inhibitory concentration (IC50) worked out at 26.9 nM. The Ki is 6.2 nM in data set [2] and 190 nM in data set [3].

Consider `COCCOc1ccc(N2CCN(C(=O)Cn3cc4c(nc(N)n5nc(-c6ccco6)nc45)n3)CC2)cc1` [Compound D2, 2-(5-amino-2-(furan-2-yl)-8H-pyrazolo[4,3-e][1,2,4]triazolo[1,5-c]pyrimidin-8-yl)-1-(4-(4-(2-methoxyethoxy)phenyl)piperazin-1-yl)ethan-1-one], for which the IC50 in data set [1] was found to be 66.8 nM. Further, the Ki in data set [2] was 2.8 nM; in data set [3], 0.81 nM.

Turning to `CCCC(C(=O)N1CCN(c2ccc(OCCOC)cc2F)CC1)n1ncc2c1nc(N)n1nc(-c3ccco3)nc21` (single isomer, unassigned) [Compound A24a], the concentration for half-maximal inhibition (IC50) in data set [1] was found to be 1 nM. The figures for the Ki in data set [2] and in data set [3] were 1.4 nM and 120 nM, respectively.

Consider `COCCOc1ccc(N2CCN(C(=O)C(CC(C)C)n3ncc4c3nc(N)n3nc(-c5ccco5)nc43)CC2)cc1` (single isomer, unassigned) [Compound A16a], for which half-maximal inhibition in data set [1] (IC50) was put at 0.3 nM. The Ki in data set [2] was 1.5 nM; in data set [3] it was 57 nM.
